Measured values as given in patent US11214577B2, “Morphinans useful for treating medical disorders” (priority 2019, dated 2022).
Read-outs that look alike come from different tables or passages of the source.

What was measured:
[1] = molecular target: T1, recombinant human mu opioid receptor (Homo sapiens, UniProt P35372); assay: Opioid receptor radioligand binding assay, mu; details: for IC50: radioligand [3H]DAMGO 0.5 nM; for Selectivity μ/k: ratio of Mu IC50 to Kappa IC50
T1 construct: expressed in transfected cells; host or cells: HEK293 (membranes)
T1 sequence (P35372 whole entry): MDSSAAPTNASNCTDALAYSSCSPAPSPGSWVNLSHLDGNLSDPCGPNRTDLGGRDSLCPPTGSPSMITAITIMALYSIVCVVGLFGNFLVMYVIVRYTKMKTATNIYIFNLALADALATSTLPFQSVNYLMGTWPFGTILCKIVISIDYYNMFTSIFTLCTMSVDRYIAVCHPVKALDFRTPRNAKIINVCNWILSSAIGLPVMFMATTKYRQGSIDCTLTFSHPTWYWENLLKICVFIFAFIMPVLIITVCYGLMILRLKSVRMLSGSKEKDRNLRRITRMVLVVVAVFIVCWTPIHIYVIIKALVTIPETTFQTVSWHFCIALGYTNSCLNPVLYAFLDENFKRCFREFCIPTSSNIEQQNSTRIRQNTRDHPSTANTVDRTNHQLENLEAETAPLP

[2] = molecular target: T2, recombinant human delta opioid receptor (Homo sapiens, UniProt P41143); assay: Opioid receptor radioligand binding assay, delta; details: for IC50: radioligand [3H]DADLE 0.5 nM; for Selectivity δ/k: ratio of Delta IC50 to Kappa IC50
T2 construct: expressed in transfected cells; host or cells: HEK293 (membranes)
T2 sequence (P41143 whole entry): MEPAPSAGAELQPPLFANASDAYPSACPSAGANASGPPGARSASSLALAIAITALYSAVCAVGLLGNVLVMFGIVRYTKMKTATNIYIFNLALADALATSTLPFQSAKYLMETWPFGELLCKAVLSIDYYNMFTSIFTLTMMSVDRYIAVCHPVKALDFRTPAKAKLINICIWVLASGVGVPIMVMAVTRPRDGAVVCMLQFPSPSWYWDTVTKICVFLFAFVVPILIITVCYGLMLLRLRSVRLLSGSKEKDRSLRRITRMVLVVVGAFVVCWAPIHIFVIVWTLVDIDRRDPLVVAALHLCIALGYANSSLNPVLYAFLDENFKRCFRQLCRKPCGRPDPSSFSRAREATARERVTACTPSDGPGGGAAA

[3] = molecular target: T3, recombinant human kappa opioid receptor (Homo sapiens, UniProt P41145); assay: biochemical; details: membranes of HEK293 cells; radioligand [3H]diprenorphine 0.5 nM; read-out: Binding Affinity Kappa IC50
T3 construct: expressed in transfected cells; host or cells: HEK293 (membranes)
T3 sequence (P41145 whole entry): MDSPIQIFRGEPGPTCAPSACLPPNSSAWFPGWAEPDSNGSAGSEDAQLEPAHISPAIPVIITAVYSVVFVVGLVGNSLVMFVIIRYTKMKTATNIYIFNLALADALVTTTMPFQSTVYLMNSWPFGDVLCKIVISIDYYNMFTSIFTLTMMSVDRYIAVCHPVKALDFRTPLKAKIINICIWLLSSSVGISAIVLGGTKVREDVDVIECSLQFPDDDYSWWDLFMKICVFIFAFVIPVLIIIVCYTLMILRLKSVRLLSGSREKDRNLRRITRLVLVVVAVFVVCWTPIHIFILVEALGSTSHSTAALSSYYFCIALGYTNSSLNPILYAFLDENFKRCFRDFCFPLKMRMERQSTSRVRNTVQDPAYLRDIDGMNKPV

[4] = molecular target: T3, recombinant human kappa opioid receptor; assay: cell-based; format: cell-based; details: for EC50: read-out: Cell Assay (FLIPR Calcium) Kappa EC50
[5] = membranes of HEK293 cells, read-out: Binding Affinity Mu IC50
[6] = membranes of HEK293 cells, read-out: Binding Affinity Delta IC50
[7] = Binding Affinity Mu IC50, membranes of HEK293 cells
[8] = Binding Affinity Delta IC50, membranes of HEK293 cells

Row | Compound | IC50 [1, 5] | Selectivity μ/k [1] | IC50 [2, 6] | Selectivity δ/k [2] | IC50 [3] | IC50 [1, 7] | IC50 [2, 8] | FLIPR calcium cell assay compared with reference ([4]; comparison in words on Table 2) | EC50 [4]
1 | 17-cyclopropylmethyl-10-oxo-4,5α-epoxy-3,14β-dihydroxy-6β-((1R,2R)—N-methyl-2-(3-(4-hydroxylphenyl)-cyclopropanecarboxamido)morphinan [Compound 23b] | 73.7 nM | 118.9 | 528 nM | 1331 | 0.62 nM | – | – | – | –
2 | 17-cyclopropylmethyl-10-oxo-4,5α-epoxy-3,14β-dihydroxy-6β-((1S,2S)—N-methyl-2-(3-(4-hydroxylphenyl)-cyclopropanecarboxamido)morphinan [Compound 23a] | 12.2 nM | 174.3 | 261 nM | 3731 | 0.07 nM | – | – | – | –
3 | CN(C(=O)C1CC1c1ccoc1)C1CCC2(O)C3Cc4ccc(O)c5c4C2(CCN3CC2(O)CC2)C1O5 (single isomer, unassigned) [Compound 16a] | – | 1.65 | – | 5.80 | 0.94 nM | 1.55 nM | 5.46 nM | – | –
4 | CN(C(=O)C1CC1c1ccoc1)C1CCC2(O)C3Cc4ccc(O)c5c4C2(CCN3CC2(O)CC2)C1O5 (single isomer, unassigned) [Compound 16b] | – | 1.07 | – | 5.05 | 6.74 nM | 7.18 nM | 34 nM | – | –
5 | CN(C(=O)C1CC1c1ccsc1)C1CCC2(O)C3Cc4ccc(O)c5c4C2(CCN3CC2(O)CC2)C1O5 (single isomer, unassigned) [Compound 18a] | – | 1.63 | – | 11.3 | 0.97 nM | 1.58 nM | 10.9 nM | – | –
6 | CN(C(=O)C1CC1c1ccsc1)C1CCC2(O)C3Cc4ccc(O)c5c4C2(CCN3CC2(O)CC2)C1O5 (single isomer, unassigned) [Compound 18b] | – | 12.5 | – | 19.2 | 6.15 nM | 76.8 nM | 118 nM | – | –
7 | CN(C(=O)C1CC1c1ccsc1)C1CCC2(O)C3Cc4ccc(O)c5c4C2(CCN3CC2(O)CC2)C1O5 (single isomer, unassigned) [Compound 19a] | – | 8.05 | – | 96.1 | 0.17 nM | 1.37 nM | 16.3 nM | – | –
8 | CN(C(=O)C1CC1c1ccc(O)cc1)C1CCC2(O)C3Cc4ccc(O)c5c4C2(CCN3CC2(O)CC2)C1O5 (single isomer, unassigned) [Compound 20a] | – | 1.12 | – | 1.57 | 102 nM | 119 nM | 161 nM | – | –
9 | CN(C(=O)C1CC1c1ccc(O)cc1)C1CCC2(O)C3Cc4ccc(O)c5c4C2(CCN3CC2(O)CC2)C1O5 (single isomer, unassigned) [Compound 21a] | – | 1.47 | – | 35.6 | 0.85 nM | 1.25 nM | 30.2 nM | – | –
10 | CN(C(=O)[C@H]1C[C@@H]1c1ccoc1)[C@@H]1CC[C@@]2(O)[C@H]3Cc4ccc(O)c5c4[C@@]2(CCN3CC2CC2)[C@H]1O5 [Compound 5a, 17-Cyclopropylmethyl-4,5α-epoxy-3,14β-dihydroxy-6β-((1S,2S)—N-methyl-2-(3-furyl)-cyclopropanecarboxamido)morphinan] | – | – | – | 207.59 | 0.42 nM | 10.7 nM | 86.5 nM | improved cell assays over U-69596 | 2.64 nM
11 | CN(C(=O)[C@@H]1C[C@H]1c1ccoc1)[C@@H]1CC[C@@]2(O)[C@H]3Cc4ccc(O)c5c4[C@@]2(CCN3CC2CC2)[C@H]1O5 [Compound 5b, 17-Cyclopropylmethyl-4,5α-epoxy-3,14β-dihydroxy-6β-((1R,2R)—N-methyl-2-(3-furyl)-cyclopropanecarboxamido)morphinan] | – | 0.45 | – | 8.90 | 7.76 nM | 3.47 nM | 69 nM | – | 9.7 nM
12 | CN(C(=O)[C@H]1C[C@@H]1c1ccoc1)[C@H]1CC[C@@]2(O)[C@H]3Cc4ccc(O)c5c4[C@@]2(CCN3CC2CC2)[C@H]1O5 [Compound 7a, 17-Cyclopropylmethyl-4,5α-epoxy-3,14β-dihydroxy-6α-((1S,2S)—N-methyl-2-(3-furyl)-cyclopropanecarboxamido)morphinan] | – | 5.85 | – | 12.6 | 0.05 nM | 0.3 nM | 0.66 nM | – | 6.86 nM
13 | CN(C(=O)[C@@H]1C[C@H]1c1ccoc1)[C@H]1CC[C@@]2(O)[C@H]3Cc4ccc(O)c5c4[C@@]2(CCN3CC2CC2)[C@H]1O5 [Compound 7b, 17-Cyclopropylmethyl-4,5α-epoxy-3,14β-dihydroxy-6α-((1R,2R)—N-methyl-2-(3-furyl)-cyclopropanecarboxamido)morphinan] | – | 2.16 | – | 2.82 | 0.24 nM | 0.52 nM | 0.68 nM | – | 3.76 nM
14 | CN(C(=O)[C@H]1C[C@@H]1c1ccoc1)[C@@H]1CC[C@@]2(O)[C@H]3Cc4ccc(O)c5c4[C@@]2(CCN3CC2(O)CC2)[C@H]1O5 [Compound 17a, 17-(1-hydroxylcyclopropylmethyl)-4,5α-epoxy-3,14β-dihydroxy-6β-((1S,2S)—N-methyl-2-(3-furyl)-cyclopropanecarboxamido)morphinan] | – | 4.07 | – | 35.3 | 1.22 nM | 4.96 nM | 43.1 nM | – | –
15 | CN(C(=O)[C@@H]1C[C@H]1c1ccoc1)[C@@H]1CC[C@@]2(O)[C@H]3Cc4ccc(O)c5c4[C@@]2(CCN3CC2(O)CC2)[C@H]1O5 [Compound 17b] | – | 6.99 | – | 11.0 | 6.49 nM | 45.4 nM | 71.6 nM | – | –
16 | CN(C(=O)[C@@H]1C[C@H]1c1ccsc1)[C@@H]1CC[C@@]2(O)[C@H]3Cc4ccc(O)c5c4[C@@]2(CCN3CC2(O)CC2)[C@H]1O5 [Compound 19b] | – | 13.0 | – | 319 | 0.46 nM | 5.98 nM | 147 nM | – | –
17 | CN(C(=O)[C@@H]1C[C@H]1c1ccc(O)cc1)[C@H]1CC[C@@]2(O)[C@H]3Cc4ccc(O)c5c4[C@@]2(CCN3CC2(O)CC2)[C@H]1O5 [Compound 20b] | – | 0.50 | – | 0.73 | 16 nM | 8.08 nM | 11.8 nM | – | –
18 | CN(C(=O)[C@@H]1C[C@H]1c1ccc(O)cc1)[C@@H]1CC[C@@]2(O)[C@H]3Cc4ccc(O)c5c4[C@@]2(CCN3CC2(O)CC2)[C@H]1O5 [Compound 21b] | – | <0.57 | – | <1.93 | > 200 nM | 114 nM | 385 nM | – | –
